Source: the supplement of paper PMC11962398

Key:
[1] = compound: T1, C[C@H]1CNCCN1c1nccc(-c2noc3c2CCC[C@@]32CCCc3sc(N)c(C#N)c32)n1 [BI-2493]; settings: 5 days
Experimental: (§1)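 PRISM pooled barcoded cancer cell line viability screen (Broad Institute) with BI-2493 at 8 doses in threefold dilutions from 0.00457 to 10 µmol/L, 5-day treatment; curves fitted per cell line. IC50 is undefined (placeholder) for resistant lines. AUC is capped at 1, and sensitivity is reported as 1 − AUC.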

[2] = compound: T1, BI-2493; test: 1 - AUC of viability dose-response curve (sensitivity) (fraction); higher = more sensitive; settings: 5 days
Experimental: as §1

| Test System | IC50 of cell viability [1] | 1 - AUC of viability dose-response curve [2] |
| --- | --- | --- |
| RCM1_LARGE_INTESTINE | 1.73 µM | 0.271 |
| RDES_BONE | 9.6 µM | 0.0344 |
| RD_SOFT_TISSUE | 9.09 µM | 0.0771 |
| RERFGC1B_STOMACH | 3.33 µM | 0.262 |
| RERFLCAD1_LUNG | 4.27 µM | 0.18 |
| RERFLCAD2_LUNG | 4.39 µM | 0.12 |
| RERFLCKJ_LUNG | 8.19 µM | 0.0525 |
| RERFLCMS_LUNG | 8.02 µM | 0.037 |
| RH4_SOFT_TISSUE | 6.58 µM | 0.0866 |
| RH28_SOFT_TISSUE | 5.97 µM | 0.0907 |
| RH30_SOFT_TISSUE | 9.22 µM | 0.0138 |
| RH36_SOFT_TISSUE | 6.76 µM | 0.119 |
| RI1_HAEMATOPOIETIC_AND_LYMPHOID_TISSUE | 6.4 µM | 0.106 |
| RKO_LARGE_INTESTINE | 7.43 µM | 0.0968 |
| RL952_ENDOMETRIUM | 3.87 µM | 0.108 |
| RL_HAEMATOPOIETIC_AND_LYMPHOID_TISSUE | 4.21 µM | 0.0967 |
| RMGI_OVARY | 9.09 µM | 0.0414 |
| RMSYM_SOFT_TISSUE | 6.04 µM | 0.119 |
| RMUGS_OVARY | 5.26 µM | 0.122 |
| RO82W1_THYROID | 5.35 µM | 0.123 |
| RPMI7951_SKIN | 6.06 µM | 0.0692 |
| RPMI8402_HAEMATOPOIETIC_AND_LYMPHOID_TISSUE | 6.85 µM | 0.0899 |
| RT4_URINARY_TRACT | 5.51 µM | 0.147 |
| RT112_URINARY_TRACT | 1.22 µM | 0.281 |

| Test System | IC50 of cell viability [1] | 1 - AUC of viability dose-response curve [2] |
| --- | --- | --- |
| RVH421_SKIN | 5.43 µM | 0.133 |
| S117_THYROID | 4.21 µM | 0.0998 |
| SAOS2_BONE | 9.58 µM | 0.0212 |
| SBC5_LUNG | 5.31 µM | 0.122 |
| SCC3_HAEMATOPOIETIC_AND_LYMPHOID_TISSUE | 8.83 µM | 0.0243 |
| SCC9_UPPER_AERODIGESTIVE_TRACT | 6.27 µM | 0.11 |
| SCC25_UPPER_AERODIGESTIVE_TRACT | 5.3 µM | 0.128 |
| SCLC21H_LUNG | 7.84 µM | 0.0414 |
| SF126_CENTRAL_NERVOUS_SYSTEM | 4.43 µM | 0.0902 |
| SF295_CENTRAL_NERVOUS_SYSTEM | 9.02 µM | 0.0199 |
| SF539_CENTRAL_NERVOUS_SYSTEM | 9.12 µM | 0.173 |
| SG231_BILIARY_TRACT | 2.09 µM | 0.286 |
| SH4_SKIN | 6.75 µM | 0.0518 |
| SH10TC_STOMACH | 4.52 µM | 0.125 |
| SHMAC5_PROSTATE | 3.3 µM | 0.118 |
| SIMA_AUTONOMIC_GANGLIA | > 10 µM | 0.159 |
| SJSA1_BONE | 7.93 µM | 0.095 |
| SKES1_BONE | 6.06 µM | 0.128 |
| SKGII_ENDOMETRIUM | 8.23 µM | 0.0529 |
| SKGI_ENDOMETRIUM | 4.89 µM | 0.142 |
| SKGT2_STOMACH | 9.72 µM | 0.00814 |
| SKGT4_OESOPHAGUS | 0.494 µM | 0.403 |
| SKLMS1_SOFT_TISSUE | 9.65 µM | 0.0071 |
| SKLU1_LUNG | 1 µM | 0.329 |
